Laboratory results published in article PMC13128454, “Mutant p53 protein accumulation is selectively targetable by proximity-inducing drugs” (Nature Chemical Biology, 2025).
Where “and” joins values, the source holds several entries; their conditions need not be identical. Identical values can stand only once. Like-named read-outs stand apart in the source and are kept apart here.

What was measured:
Type in all cases: cell-based
parental 293T cells = assay: annexin–PI staining; conditions: for P3_avg (P3 = early apoptotic) / P5_avg (P5 = late apoptotic): Cell_Line WT, proportion of cells; for avgprop_P3 / avgprop_P4 / avgprop_P5 / avgprop_P2 / P2_viable / P3_AnnexinPos_PIneg / P4_PIpos_AnnexinNeg / P5_PIpos_Annexinpos / prop_P3 / prop_P4 / prop_P5 / prop_P2: WT; for avgprop_P3: average proportion AnnexinPos PIneg; for avgprop_P4: average proportion PIpos AnnexinNeg; for avgprop_P5: average proportion PIpos Annexinpos; for avgprop_P2: average proportion viable; for P2_viable / P3_AnnexinPos_PIneg / P4_PIpos_AnnexinNeg / P5_PIpos_Annexinpos: event count; for P2_viable / P3_AnnexinPos_PIneg / P4_PIpos_AnnexinNeg / P5_PIpos_Annexinpos / prop_P3 / prop_P4 / prop_P5 / prop_P2: single replicate; for prop_P3: proportion AnnexinPos PIneg; for prop_P4: proportion PIpos AnnexinNeg; for prop_P5: proportion PIpos Annexinpos; for prop_P2: proportion viable
Method: (§1) Cells were plated in six-well plates and treated with varying concentrations of compounds for 1 day. Cells were stained with annexin V–AF488 and PI following the manufacturer’s instructions (Thermo Fisher, V13241) and analyzed by flow cytometry (Beckman CytoFLEX LX), using untreated cells to establish gates.

[1] = test system: Halo–p53-Y220C ΔTAD–mCherry 293T cells; assay: annexin–PI staining; conditions: for P3_avg (P3 = early apoptotic) / P5_avg (P5 = late apoptotic): Cell_Line Y220C, proportion of cells; for avgprop_P3 / avgprop_P4 / avgprop_P5 / avgprop_P2 / P2_viable / P3_AnnexinPos_PIneg / P4_PIpos_AnnexinNeg / P5_PIpos_Annexinpos / prop_P3 / prop_P4 / prop_P5 / prop_P2: Y220C; for avgprop_P3: average proportion AnnexinPos PIneg; for avgprop_P4: average proportion PIpos AnnexinNeg; for avgprop_P5: average proportion PIpos Annexinpos; for avgprop_P2: average proportion viable; for P2_viable / P3_AnnexinPos_PIneg / P4_PIpos_AnnexinNeg / P5_PIpos_Annexinpos: event count; for P2_viable / P3_AnnexinPos_PIneg / P4_PIpos_AnnexinNeg / P5_PIpos_Annexinpos / prop_P3 / prop_P4 / prop_P5 / prop_P2: single replicate; for prop_P3: proportion AnnexinPos PIneg; for prop_P4: proportion PIpos AnnexinNeg; for prop_P5: proportion PIpos Annexinpos; for prop_P2: proportion viable
Method: as §1

[2] = viability with doxycycline-inducible construct; conditions: human, read-out: mean_norm (normalized viability)
Method: Cells were plated in 384-well plates (typically 1,500 cells per well) with varying concentrations of compounds, with a total volume of 50 μl per well. CTG reagent was added (25 μl) to the solutions, mixed and read out using an EnVision 2105 multimode plate reader.

## CC[C@@H]1C(=O)N(C)c2cnc(Nc3ccc(C(=O)NC4CCN(C)CC4)cc3OC)nc2N1C1CCCC1 [BI2536]
Parental 293T cells; Concentration 0.75
  P3_avg (P3 = early apoptotic): 0.04079
  P5_avg (P5 = late apoptotic): 0.01489
  avgprop_P3: 0.04079
  avgprop_P4: 0.03008
  avgprop_P5: 0.01489
  avgprop_P2: 0.9142
  P2_viable: 2015 and 2037 and 2022
  P3_AnnexinPos_PIneg: 93 and 83 and 95
  P4_PIpos_AnnexinNeg: 62 and 58 and 80
  P5_PIpos_Annexinpos: 28 and 35 and 36
  prop_P3: 0.04231 and 0.03751 and 0.04254
  prop_P4: 0.02821 and 0.02621 and 0.03583
  prop_P5: 0.01274 and 0.01582 and 0.01612
  prop_P2: 0.9167 and 0.9205 and 0.9055
Parental 293T cells; Concentration 1.5
  P3_avg (P3 = early apoptotic): 0.1126
  P5_avg (P5 = late apoptotic): 0.03242
  avgprop_P3: 0.1126
  avgprop_P4: 0.02945
  avgprop_P5: 0.03242
  avgprop_P2: 0.8255
  P2_viable: 1572 and 1534 and 1608
  P3_AnnexinPos_PIneg: 206 and 222 and 215
  P4_PIpos_AnnexinNeg: 60 and 57 and 51
  P5_PIpos_Annexinpos: 54 and 71 and 60
  prop_P3: 0.1089 and 0.1178 and 0.1112
  prop_P4: 0.03171 and 0.03025 and 0.02637
  prop_P5: 0.02854 and 0.03769 and 0.03102
  prop_P2: 0.8309 and 0.8142 and 0.8314
[1]; Concentration 0.75
  P3_avg (P3 = early apoptotic): 0.03538
  P5_avg (P5 = late apoptotic): 0.001761
  avgprop_P3: 0.03538
  avgprop_P4: 0.005431
  avgprop_P5: 0.001761
  avgprop_P2: 0.9574
  P2_viable: 2186 and 2152 and 2185
  P3_AnnexinPos_PIneg: 74 and 98 and 69
  P4_PIpos_AnnexinNeg: 7 and 17 and 13
  P5_PIpos_Annexinpos: 5 and 3 and 4
  prop_P3: 0.03257 and 0.04317 and 0.03038
  prop_P4: 0.003081 and 0.007489 and 0.005724
  prop_P5: 0.002201 and 0.001322 and 0.001761
  prop_P2: 0.9621 (2×) and 0.948
[1]; Concentration 1.5
  P3_avg (P3 = early apoptotic): 0.08725
  P5_avg (P5 = late apoptotic): 0.03439
  avgprop_P3: 0.08725
  avgprop_P4: 0.1027
  avgprop_P5: 0.03439
  avgprop_P2: 0.7757
  P2_viable: 1282 and 1336 and 510
  P3_AnnexinPos_PIneg: 163 and 159 and 47
  P4_PIpos_AnnexinNeg: 201 and 160 and 62
  P5_PIpos_Annexinpos: 59 and 56 and 23
  prop_P3: 0.0956 and 0.09293 and 0.07321
  prop_P4: 0.1179 and 0.09351 and 0.09657
  prop_P5: 0.0346 and 0.03273 and 0.03583
  prop_P2: 0.7519 and 0.7808 and 0.7944
[2]; dox 100, Concentration 0.0390625
  viability: 99%
[2]; dox 100, Concentration 0.078125
  viability: 86.5%
[2]; dox 100, Concentration 0.15625
  viability: 88.6%
[2]; dox 1000, Concentration 0.0390625
  viability: 97.3%
[2]; dox 1000, Concentration 0.078125
  viability: 89.3%
[2]; dox 1000, Concentration 0.15625
  viability: 88.7%
[2]; dox 1000, Concentration 0.3125
  viability: 83%
